Measurements as given in PMC4313372, “MHJ_0461 is a multifunctional leucine aminopeptidase on the surface of Mycoplasma hyopneumoniae” (Open Biology, 2015).

Legend:
rMHJ_0461 [1] = biological target: T1, rMHJ_0461 (Mesomycoplasma hyopneumoniae, UniProt Q4A9M4); assay: fluorogenic aminopeptidase assay, leucine-AMC, […] min preincubation; assay type: biochemical; parameters: gene pepA; multimers of about 500 and 800 kDa; settings: read-out: % inhibition at 1 mM
rMHJ_0461 [2] = biological target: T1, rMHJ_0461; parameters: gene pepA; settings: 50 uM substrate, 5 mM Mn2+, pH 7.2, 37 C
[3] = biological target: recombinant MHJ_0461 (Mycoplasma hyopneumoniae strain J); assay: native gel or EMSA; Blue Native PAGE of purified rMHJ_0461; complexes identified by LC-MS/MS of tryptic peptides

CC(C)C[C@@H](N)[C@H](O)C(=O)N[C@H](C(=O)N[C@H](C(=O)N[C@@H](CC(=O)O)C(=O)O)C(C)C)C(C)C [amastatin]
inhibition at 1000 µM (rMHJ_0461 [1]): 69%

CC(C)C[C@H](NC(=O)[C@@H](O)[C@H](N)Cc1ccccc1)C(=O)O [bestatin]
inhibition at 1000 µM (rMHJ_0461 [1]): 99%

CSCC[C@H](N)C(=O)Nc1ccc2c(C)cc(=O)oc2c1 [methionine-AMC]
fluorogenic AMC release assay (rMHJ_0461 [2]): leucine > methionine > phenylalanine > arginine > alanine > isoleucine > glycine > valine

recombinant MHJ_0461 (enzyme)
stoichiometry N [3]: > 10 subunits
